Test results taken from patent publication US20100168072A1, “Drug Combinations for the Treatment of Duchenne Muscular Dystrophy” (BIOMARIN IGA LIMITED, priority 2007, published 2010).

System: Utrophin A promoter linked to a luciferase reporter gene (H2K/mdx/Utro A reporter cell line)
Experiment: Luciferase reporter assay (murine H2K cells)
Type: cell-based
Conditions: Mus musculus; final concentration of 10 μM; incubated for a further 48 hrs
Experimental: The cell line used for the screen is an immortalized mdx mouse H2K cell line that has been stably transfected with a plasmid containing ≈5 kb fragment of the Utrophin A promoter including the first untranslated […] linked to a luciferase reporter gene.
Under conditions of low temperature and interferon containing media, the cells remain as myoblasts. These are plated into 96 well plates and cultured in the presence of compound for three days. The level of luciferase is then determined by cell lysis and reading of the light output from the expressed luciferase gene utilising a plate luminometer.
The H2K/mdx/Utro A reporter cell line was passaged twice a week until ≦30% confluent. The cells were grown at 33° C. in the presence of 10% CO2
To remove the myoblasts for platting, they were incubated with Trypsin/EDTA until the monolayer started to detach.
• DMEM Gibco 41966 • 20% FCS • 1% Pen/Strep • 1% glutamine • 10 mls Chick embryo extract • Interferon(1276 905 Roche) Add fresh 10 μl/50 mls medium
The H2K/mdx/Utro A reporter cell line cells were plated out into 96 well plates (Falcon 353296, white opaque) at a density of approximately 5000 cells/well in 190 μl normal growth medium. The plates were then incubated at 33° C. in the presence of 10% CO2 for 24 hrs.
Compounds were dosed by adding 10 μl of diluted compound to each well giving a final concentration of 10 μM. The plates were then incubated for a further 48 hrs
Cells were then lysed in situ following the manufacture's protocols (Promega Steady-Glo Luciferase Assay System (E2520). Then counted for 10 seconds using a plate luminometer (Victor1420).

Compound | activity at 10 µM [%]
Cc1cc2nn(-c3ccc(N4CCOCC4)cc3)nc2cc1N [Example 34, 6-methyl-2-(4-morpholinophenyl)-2H-benzo[d][1,2,3]triazol-5-amine] | 201 to 300
CS(=O)(=O)c1ccc2nn(-c3ccc4ccccc4c3)nc2c1 [Example 55, 5-(Methylsulfonyl)-2-(naphthalen-2-yl)-2H-benzo[d][1,2,3]triazole] | > 401
CS(=O)(=O)c1ccc2nn(-c3ccc(Cl)c(Cl)c3)nc2c1 [Example 50, 2-(3,4-dichlorophenyl)-5-(methylsulfonyl)-2H-benzo[d][1,2,3]triazole] | 201 to 300
CCN(CC)c1ccc(-n2nc3cc(C)c(NC(=O)c4ccco4)cc3n2)cc1 [Example 18, N-(2-(4-(diethylamino)phenyl)-6-methyl-2H-benzo[d][1,2,3]triazol-5-yl)furan-2-carboxamide] | < 200
CCN(CC)c1ccc(-n2nc3ccc(NC(=O)c4ccco4)cc3n2)cc1 [Example 27, N-(2-(4-(diethylamino)phenyl)-2H-benzo[d][1,2,3]triazol-5-yl)furan-2-carboxamide] | < 200
CCS(=O)(=O)c1ccc2nn(-c3ccc(Cl)cc3)nc2c1 [Example 52, 2-(4′-chlorophenyl)-5-(ethylsulfonyl)-benzotriazole] | > 401
CCN(CC)c1ccc(-n2nc3ccc(NC(=O)c4ccc(Cl)cc4)cc3n2)cc1 [Example 32, 4-chloro-N-(2-(4-(diethylamino)phenyl)-2H-benzo[d][1,2,3]triazol-5-yl)benzamide] | < 200
CS(=O)(=O)c1ccc2nn(-c3ccc(Cl)cc3)nc2c1 [Example 49, 2-(4-chlorophenyl)-5-(methylsulfonyl)-2H-benzo[d][1,2,3]triazole] | < 200
CCN(CC)c1ccc(-n2nc3ccc(NC(=O)c4ccncc4)cc3n2)cc1 [Example 21, N-(2-(4-(diethylamino)phenyl)-2H-benzo[d][1,2,3]triazol-5-yl)isonicotinamide] | < 200
Cc1cc2nn(-c3ccc(Cl)cc3)nc2cc1NC(=O)c1ccncc1 [Example 2, N-(2-(4-chlorophenyl)-6-methyl-2H-benzo[d][1,2,3]triazol-5-yl)isonicotinamide] | 201 to 300
CC(=O)Nc1cc2nn(-c3ccccc3)nc2cc1C [Example 67, N-(6-methyl-2-phenyl-2H-benzo[d][1,2,3]triazol-5-yl)acetamide] | 201 to 300
CC(=O)Nc1ccc2nn(-c3ccc(F)cc3)nc2c1 [Example 69, N-(2-(4-fluorophenyl)-2H-benzo[d][1,2,3]triazol-5-yl)acetamide] | 201 to 300
CCS(=O)(=O)c1ccc2nn(-c3ccc(Cl)c(Cl)c3)nc2c1 [Example 51, 2-(3′,4′-dichlorophenyl)-5-(ethylsulfonyl)-benzotriazole] | 301 to 400
CN1CCN(c2ccc(-n3nc4ccc(N)cc4n3)cc2)CC1 [Example 42, 2-(4-(4-methylpiperazin-1-yl)phenyl)-2H-benzo[d][1,2,3]triazol-5-amine] | < 200
Cc1cc2nn(-c3ccc(Cl)cc3)nc2cc1NC(=O)C(C)C [Example 10, N-(2-(4-chlorophenyl)-6-methyl-2H-benzo[d][1,2,3]triazol-5-yl)isobutyramide] | 201 to 300
CCC(=O)Nc1ccc2nn(-c3ccc(N(CC)CC)cc3)nc2c1 [Example 23, N-(2-(4-(diethylamino)phenyl)-2H-benzo[d][1,2,3]triazol-5-yl)propionamide] | < 200
CCCC(=O)Nc1ccc2nn(-c3ccc(N(CC)CC)cc3)nc2c1 [Example 24, N-(2-(4-(diethylamino)phenyl)-2H-benzo[d][1,2,3]triazol-5-yl)butyramide] | < 200

Compound | activity at 10 µM [%]
CCN(CC)c1ccc(-n2nc3ccc(NC(=O)c4ccccc4)cc3n2)cc1 [Example 29, N-(2-(4-(diethylamino)phenyl)-2H-benzo[d][1,2,3]triazol-5-yl)benzamide] | < 200
Cc1cc2nn(-c3ccc(Cl)cc3)nc2cc1N [Example 43, 2-(4-chlorophenyl)-6-methyl-2H-benzo[d][1,2,3]triazol-5-amine] | > 401
Clc1ccc(-n2cc3ccccc3n2)cc1 [Example 48, 2-(4-chlorophenyl)-2H-indazole] | > 401
CCCC(=O)Nc1cc2nn(-c3ccc(Cl)cc3)nc2cc1C [Example 8, N-(2-(4-chlorophenyl)-6-methyl-2H-benzo[d][1,2,3]triazol-5-yl)butyramide] | 201 to 300
CS(=O)(=O)c1ccc2nn(-c3ccc4ccccc4c3)[n+]([O-])c2c1 [Example 54, 6-(Methylsulfonyl)-2-(naphthalen-2-yl)-2H-benzo[d][1,2,3]triazole 1-oxide] | 201 to 300
CC(=O)Nc1ccc2nn(-c3ccc(Cl)cc3)nc2c1 [Example 39, N-(2-(4-chlorophenyl)-2H-benzo[d][1,2,3]triazol-5-yl)acetamide] | > 401
CCC(=O)Nc1cc2nn(-c3ccc(N(CC)CC)cc3)nc2cc1C [Example 14, N-(2-(4-(diethylamino)phenyl)-6-methyl-2H-benzo[d][1,2,3]triazol-5-yl)propionamide] | < 200
CCC(=O)Nc1ccc2nn(-c3ccc(Cl)cc3)nc2c1 [Example 35, N-(2-(4-chlorophenyl)-2H-benzo[d][1,2,3]triazol-5-yl)propionamide] | > 401
CCN(CC)c1ccc(-n2nc3cc(C)c(NC(=O)c4ccncc4)cc3n2)cc1 [Example 13, N-(2-(4-(diethylamino)phenyl)-6-methyl-2H-benzo[d][1,2,3]triazol-5-yl)isonicotinamide] | 301 to 400
CCC(=O)Nc1cc2nn(-c3ccc(Cl)cc3)nc2cc1C [Example 7, N-(2-(4-chlorophenyl)-6-methyl-2H-benzo[d][1,2,3]triazol-5-yl)propionamide] | < 200
Cc1cc2nn(-c3ccc(Cl)cc3)nc2cc1NC(=O)c1ccccc1 [Example 3, N-(2-(4-chlorophenyl)-6-methyl-2H-benzo[d][1,2,3]triazol-5-yl)benzamide] | < 200
CCCC(=O)Nc1ccc2nn(-c3ccc(Cl)cc3)nc2c1 [Example 36, N-(2-(4-chlorophenyl)-2H-benzo[d][1,2,3]triazol-5-yl)butyramide] | 301 to 400
CCN(CC)c1ccc(-n2nc3cc(C)c(NC(=O)C(C)C)cc3n2)cc1 [Example 17, N-(2-(4-(diethylamino)phenyl)-6-methyl-2H-benzo[d][1,2,3]triazol-5-yl)isobutyramide] | < 200
CCN(CC)c1ccc(-n2nc3ccc(NC(=O)c4cccs4)cc3n2)cc1 [Example 28, N-(2-(4-(diethylamino)phenyl)-2H-benzo[d][1,2,3]triazol-5-yl)thiophene-2-carboxamide] | < 200
CC(C)S(=O)(=O)c1ccc2cn(-c3ccc(Cl)cc3)nc2c1 [Example 56, 2-(4′-Chlorophenyl)-6-(isopropylsulfonyl)-2H-indazole] | > 401
COc1ccccc1C(=O)Nc1cc2nn(-c3ccc(Cl)cc3)nc2cc1C [Example 5, N-(2-(4-chlorophenyl)-6-methyl-2H-benzo[d][1,2,3]triazol-5-yl)-2-methoxybenzamide] | < 200
CC(C)C(=O)Nc1ccc2nn(-c3ccc(Cl)cc3)nc2c1 [Example 37, N-(2-(4-chlorophenyl)-2H-benzo[d][1,2,3]triazol-5-yl)isobutyramide] | > 401
